Source: patent publication US8791132B2, “Compounds and methods for treatment of hypertension” (Medivation Technologies, Inc., priority 2011, dated 2014)
Where “and” joins values, the source holds several entries; their conditions need not be identical. Equal values may be shown once. Read-outs that look alike come from different tables or passages of the source.

Key:
[1] = target: T1, human recombinant adrenergic α2A receptor (Homo sapiens, UniProt P08913); test: Radioligand binding, adrenergic α2A ([3H]MK-912)
T1 construct: expressed in transfected cells; host or cells: insect Sf9 cells
T1 sequence (P08913 1-465): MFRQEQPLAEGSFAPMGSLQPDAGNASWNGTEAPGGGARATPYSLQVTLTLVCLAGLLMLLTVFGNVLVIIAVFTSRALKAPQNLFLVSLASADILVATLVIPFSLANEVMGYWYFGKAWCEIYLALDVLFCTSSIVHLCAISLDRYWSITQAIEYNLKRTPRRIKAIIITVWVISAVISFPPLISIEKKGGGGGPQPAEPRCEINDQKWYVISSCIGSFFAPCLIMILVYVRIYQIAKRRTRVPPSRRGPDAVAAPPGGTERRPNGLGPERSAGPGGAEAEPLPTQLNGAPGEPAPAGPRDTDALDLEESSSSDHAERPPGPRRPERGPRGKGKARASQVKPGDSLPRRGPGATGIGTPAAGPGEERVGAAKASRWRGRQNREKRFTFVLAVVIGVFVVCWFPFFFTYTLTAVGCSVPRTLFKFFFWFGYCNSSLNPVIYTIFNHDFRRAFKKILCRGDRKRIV
Method in brief: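 In 50 mM Tris-HCl (pH 7.4) containing 12.5 mM MgCl2 and 2 mM EDTA, Sf9-expressed receptor was exposed to test compound plus 1 nM [3H]MK-912 at 25 °C for 60 min. Specific binding, corrected using 10 μM WB-4101, was quantified by filtration and counting and expressed as percent inhibition.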

[2] = target: T2, rat adrenergic α1B receptor (Rattus norvegicus, UniProt P15823); test: Radioligand binding, adrenergic α1B ([3H]Prazosin); details: for Percentage inhibition of ligand binding, Adrenergic α1B (0.1 μM) / Percentage inhibition of ligand binding, Adrenergic α1B: 0.1 µM
T2 construct: rat adrenergic α1B receptor obtained from Wistar Rat liver; from tissue; host or cells: Wistar rat liver
T2 sequence (P15823 1-515): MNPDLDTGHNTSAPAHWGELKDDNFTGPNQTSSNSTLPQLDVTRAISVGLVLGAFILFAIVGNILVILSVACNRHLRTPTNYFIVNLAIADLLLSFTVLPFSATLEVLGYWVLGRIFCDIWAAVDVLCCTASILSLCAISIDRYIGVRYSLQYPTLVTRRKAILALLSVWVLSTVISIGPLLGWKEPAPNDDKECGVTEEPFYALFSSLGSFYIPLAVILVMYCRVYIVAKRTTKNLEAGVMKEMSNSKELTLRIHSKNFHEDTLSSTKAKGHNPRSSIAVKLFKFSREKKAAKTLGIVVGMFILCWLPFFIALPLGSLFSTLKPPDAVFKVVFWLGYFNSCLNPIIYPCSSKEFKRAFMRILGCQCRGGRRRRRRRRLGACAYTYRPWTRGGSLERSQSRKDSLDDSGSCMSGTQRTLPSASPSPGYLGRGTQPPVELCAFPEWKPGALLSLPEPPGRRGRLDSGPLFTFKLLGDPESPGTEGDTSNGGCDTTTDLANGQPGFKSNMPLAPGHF
Method in brief: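 Incubation ran 60 min at 25 °C in Tris-HCl buffer (50 mM, pH 7.4, 0.5 mM EDTA) with Wistar rat liver α1B receptor. 10 μM phentolamine set non-specific binding.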

[3] = target: T3, human recombinant adrenergic α2B receptor (Homo sapiens, UniProt P18089); test: Radioligand binding, adrenergic α2B ([3H]Rauwolscine); details: for Percentage inhibition of ligand binding, Adrenergic α2B (0.03 μM) / Percentage inhibition of ligand binding, Adrenergic α2B: 0.03 µM
T3 construct: expressed in transfected cells; host or cells: CHO-K1
T3 sequence (P18089 1-450): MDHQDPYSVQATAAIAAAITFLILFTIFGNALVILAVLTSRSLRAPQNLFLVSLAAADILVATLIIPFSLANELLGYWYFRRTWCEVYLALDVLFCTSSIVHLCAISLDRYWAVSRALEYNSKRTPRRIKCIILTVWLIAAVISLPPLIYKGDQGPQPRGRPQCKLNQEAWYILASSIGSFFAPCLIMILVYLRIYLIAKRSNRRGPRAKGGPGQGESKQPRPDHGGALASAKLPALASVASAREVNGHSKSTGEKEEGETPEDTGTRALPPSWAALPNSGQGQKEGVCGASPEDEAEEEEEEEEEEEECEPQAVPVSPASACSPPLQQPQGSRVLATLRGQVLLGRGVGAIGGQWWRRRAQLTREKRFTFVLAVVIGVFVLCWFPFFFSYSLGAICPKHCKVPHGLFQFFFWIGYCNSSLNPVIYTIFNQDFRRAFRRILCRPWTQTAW
Method in brief: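 Readout: percent inhibition of specific [3H]Rauwolscine binding, measured by filtration and counting. Conditions: CHO-K1 cell-expressed receptor, 2.5 nM radioligand, 60 min, 25° C, Tris-HCl pH 7.4 buffer with MgCl2, EDTA, BSA. Non-specific binding: 10 μM Prazosin.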

[4] = compound at 0.1 μM, [3H]MK-912, repeat datapoints each shown, 0.1 µM
[5] = compound at 0.1 μM, [3H]Prazosin, repeat datapoints each shown
[6] = compound at 0.03 μM, [3H]Rauwolscine, repeat datapoints each shown
[7] = compound at 0.1 μM, [3H]Prazosin, repeat assays, each datapoint shown
[8] = compound at 0.03 μM, [3H]Rauwolscine, repeat assays, each datapoint shown, read-out: Percentage inhibition of ligand binding, Adrenergic α2B
[9] = compound at 0.1 μM, [3H]MK-912, repeat assays, each datapoint shown, 0.1 µM
[10] = compound at 0.03 μM, [3H]Rauwolscine, repeat assays, each datapoint shown
[11] = read-out: Percentage inhibition of ligand binding, Adrenergic α2A (0.1 μM), compound at 0.1 μM, [3H]MK-912, repeat datapoints each shown
[12] = read-out: Percentage inhibition of ligand binding, Adrenergic α1B (0.1 μM), compound at 0.1 μM, [3H]Prazosin, repeat datapoints each shown
[13] = read-out: Percentage inhibition of ligand binding, Adrenergic α2B (0.03 μM), compound at 0.03 μM, [3H]Rauwolscine, repeat datapoints each shown

## Cc1cnc2c(c1)c1c(n2CC(O)c2ccncc2)CCN2CCCC12 (single isomer, unassigned) [IV-209c, 2-(9-Methyl-1,2,3,4,5,10c-hexahydro-3a,6,7-triaza-cyclopenta[c]fluoren-6-yl)-1-pyridin-4-yl-ethanol]
[1]; [4]
  Percentage inhibition of ligand binding, Adrenergic α2A (0.1 μM): 59%
[2]; [5]
  Percentage inhibition of ligand binding, Adrenergic α1B (0.1 μM): 98%
[3]; [6]
  Percentage inhibition of ligand binding, Adrenergic α2B (0.03 μM): 102%

## Cc1ccc2c(c1)c1c(n2CC(O)c2ccc(F)cc2F)CCN(C)CC1 (single isomer, unassigned) [172a]
[1]; [4]
  Percentage inhibition of ligand binding, Adrenergic α2A (0.1 μM): 18%
[2]; [5]
  Percentage inhibition of ligand binding, Adrenergic α1B (0.1 μM): 54%
[3]; [6]
  Percentage inhibition of ligand binding, Adrenergic α2B (0.03 μM): 65%

## Cc1ccc2c(c1)c1c(n2CC(C)(O)c2ccc(C)nc2)CCN(C)C1 (stereo not shown) [29b]
[1]; compound at 0.1 μM, [3H]MK-912, repeat assays, each datapoint shown
  Percentage inhibition of ligand binding, Adrenergic α2A: 10%
[2]; [7]
  Percentage inhibition of ligand binding, Adrenergic α1B: 14%
[3]; [8]
  inhibition at 0.03 µM: 46%

## CC(O)(Cn1c2c(c3cc(Cl)ccc31)CNCC2)c1ccncn1 (single isomer, unassigned) [42b, 1-(8-chloro-1,2,3,4-tetrahydro-pyrido[4,3-b]indol-5-yl)-2-pyrimidin-4-yl-propan-2-ol]
[1]; [9]
  Percentage inhibition of ligand binding, Adrenergic α2A: 12%
[2]; [7]
  Percentage inhibition of ligand binding, Adrenergic α1B: 19%
[3]; [10]
  Percentage inhibition of ligand binding, Adrenergic α2B: 34%

## Cc1ccc2c(c1)c1c(n2CC(O)c2cccnc2)CCN(CCO)C1 (single isomer, unassigned) [21a]
[1]; [9]
  Percentage inhibition of ligand binding, Adrenergic α2A: −1%
[2]; [7]
  Percentage inhibition of ligand binding, Adrenergic α1B: 5%
[3]; [10]
  Percentage inhibition of ligand binding, Adrenergic α2B: −2%

## CCOC(=O)N1CCc2c(c3cc(C)ccc3n2CC(O)c2ccncc2)C1 (stereo not shown) [compound 72, ethyl 3,4-dihydro-5-(2-hydroxy-2-(pyridin-4-yl)ethyl)-8-methyl-1H-pyrido[4,3-b]indole-2(5H)-carboxylate]
[1]; compound at 0.1 μM, [3H]MK-912, repeat assays, each datapoint shown, read-out: Percentage inhibition of ligand binding, Adrenergic α2A
  inhibition at 0.1 µM: -2%
[2]; compound at 0.1 μM, [3H]Prazosin, repeat assays, each datapoint shown, read-out: Percentage inhibition of ligand binding, Adrenergic α1B
  inhibition at 0.1 µM: 6%
[3]; [8]
  inhibition at 0.03 µM: 12%

## CC(O)(Cn1c2c(c3cc(Cl)cnc31)C1CCCN1CC2)c1cccnc1 (single isomer, unassigned) [IV-210c]
[1]; [4]
  Percentage inhibition of ligand binding, Adrenergic α2A (0.1 μM): 1%
[2]; [5]
  Percentage inhibition of ligand binding, Adrenergic α1B (0.1 μM): −4%
[3]; [6]
  Percentage inhibition of ligand binding, Adrenergic α2B (0.03 μM): 10%

## Cc1ccc(CCn2c3c(c4c(Cl)ccc(F)c42)CN(C)CC3)cn1 [II-248, 9-chloro-6-fluoro-2,3,4,5-tetrahydro-2-methyl-5-(2-(6-methylpyridin-3-yl)ethyl)-1H-pyrido[4,3-b]indole]
[1]; [11]
  inhibition at 0.1 µM: 88%
[2]; [12]
  inhibition at 0.1 µM: 4%
[3]; [13]
  inhibition at 0.03 µM: 5%

## CN1CCc2c(c3cccc(Cl)c3n2CC(O)c2ccncc2)C1 (single isomer, unassigned) [45b]
[1]; [9]
  Percentage inhibition of ligand binding, Adrenergic α2A: 16%
[2]; [7]
  Percentage inhibition of ligand binding, Adrenergic α1B: 24%
[3]; [10]
  Percentage inhibition of ligand binding, Adrenergic α2B: 96%

## Cc1cnc2c(c1)c1c(n2CCc2ccc(C)nc2)CCN2CCCCC12 (single isomer, unassigned) [IV-8a]
[1]; [4]
  Percentage inhibition of ligand binding, Adrenergic α2A (0.1 μM): 7%
[2]; [5]
  Percentage inhibition of ligand binding, Adrenergic α1B (0.1 μM): 49%
[3]; [13]
  inhibition at 0.03 µM: 4%

## CN1CCc2c(c3cc(CO)ccc3n2CC(C)(O)c2cccnc2)C1 (stereo not shown) [II-102]
[1]; 0.1 μM compound, read-out: Percentage inhibition of ligand binding, Adrenergic α2A
  inhibition at 0.1 µM: 10%
[2]; 0.1 μM compound, read-out: Percentage inhibition of ligand binding, Adrenergic α1B
  inhibition at 0.1 µM: 2%
[3]; 0.03 μM compound, read-out: Percentage inhibition of ligand binding, Adrenergic α2B
  inhibition at 0.03 µM: 49%

## Cc1ccc2c(c1)c1c(n2CC(c2ccc(F)cc2)N(C)C)CCN(C)C1 (single isomer, unassigned) [II-14b, 2-(2,8-dimethyl-3,4-dihydro-1H-pyrido[4,3-b]indol-5(2H)-yl)-1-(4-fluorophenyl)-N,N-dimethylethanamine]
[1]; 0.1 μM compound, 0.1 µM
  Percentage inhibition of ligand binding, Adrenergic α2A: 17%
[2]; 0.1 μM compound
  Percentage inhibition of ligand binding, Adrenergic α1B: 8%
[3]; 0.03 μM compound
  Percentage inhibition of ligand binding, Adrenergic α2B: 33%

## Cc1ccc2c(c1)c1c(n2CC(OC(=O)C(C)C)c2ccncc2)CCN(C)C1 (single isomer, unassigned) [54b, 2-(1,2,3,4-tetrahydro-2,8-dimethylpyrido[4,3-b]indol-5-yl)-1-(pyridin-4-yl)ethyl isobutyrate]
[1]; [9]
  Percentage inhibition of ligand binding, Adrenergic α2A: 66%
[2]; [7]
  Percentage inhibition of ligand binding, Adrenergic α1B: 71%
[3]; [10]
  Percentage inhibition of ligand binding, Adrenergic α2B: 106%

## Cc1ccc2c(c1)c1c(n2CC(OC(=O)C(C)(C)C)c2ccncc2)CCN(C)C1 (single isomer, unassigned) [130a]
[1]
  Ki: 6.91 nM
[2]; compound at 0.03 μM, [3H]Prazosin, repeat datapoints each shown, 0.03 µM
  Percentage inhibition of ligand binding, Adrenergic α1B (0.03 μM): 32%
[2]; [5]
  Percentage inhibition of ligand binding, Adrenergic α1B (0.1 μM): 66% and 68%
[3]; [6]
  Percentage inhibition of ligand binding, Adrenergic α2B (0.03 μM): 104%
[3]; read-out: Ki α2B
  Ki: 1.66 nM
[3]; [13]
  inhibition at 0.03 µM: 100%
[3]; read-out: Percentage inhibition of ligand binding, Adrenergic α2B (0.1 μM), compound at 0.1 μM, [3H]Rauwolscine, repeat datapoints each shown
  inhibition at 0.1 µM: 107%

## Cc1cnc2c(c1)c1c(n2CC(C)(O)c2ccc(F)cc2)CCN2CCCC12 (single isomer, unassigned) [II-149c, 2-(4-fluoro-phenyl)-1-(9-methyl-1,2,3,4,5,10c-hexahydro-3a,6,7-triazacyclopenta[c]fluoren-6-yl)-propan-2-ol]
[1]; [4]
  Percentage inhibition of ligand binding, Adrenergic α2A (0.1 μM): 5%
[2]; [5]
  Percentage inhibition of ligand binding, Adrenergic α1B (0.1 μM): 49%
[3]; [6]
  Percentage inhibition of ligand binding, Adrenergic α2B (0.03 μM): 41%

## CN1CCc2c(c3cc(Cl)ccc3n2CC(O)(c2ccc(F)cc2)C2CC2)C1 (stereo not shown) [compound 223]
[1]; [11]
  inhibition at 0.1 µM: 69%
[2]; [12]
  inhibition at 0.1 µM: 21%
[3]; [13]
  inhibition at 0.03 µM: 47%
